Results published in US4535081A, “Antiallergic and antiulcer 1-oxo-1H-thiazolo[3,2-a]pyrimidine-2-carboxamides and intermediates therefor” (Pfizer Inc., priority 1983, dated 1985).

Columns and labels:
[1] = tested on: IgE (reaginic antiserum) PCA reaction; experiment: Oral activity in PCA test, IgE; assay type: in vivo, rat
[2] = tested on: isolated guinea pig ileum (histamine); experiment: Isolated ileum spasm, histamine; details: 10^-8 to 10^-4 M
[3] = tested on: isolated guinea pig ileum (slow reacting substance of anaphylaxis); experiment: Isolated ileum spasm, slow reacting substance of anaphylaxis; details: 10^-8 to 10^-4 M
[4] = Cardiovascular effects in anesthetized dogs; assay type: in vivo, dog; details: dog, in vivo; cumulative intravenous doses; read-out: ratio of cardiovascular-effect dose to maximally effective intravenous antiallergy dose
[5] = tested on: blood pressure, heart rate and pressor responses; experiment: Cardiovascular effects in anesthetized dogs; assay type: in vivo, dog; details: cumulative 5 and 15 mg/kg, i.v.
[6] = tested on: human lymphocytes; experiment: Chromosomal breakage in human lymphocytes in vitro; assay type: cell-based; details: 1000, 100, 10 or 0 μg/ml
[7] = Plasma levels after repeated daily dosing; assay type: in vivo; details: after the eighth daily dose of III
Procedure: This is supported by the observations of plasma concentrations of 3 to 7 μg/ml one hour after oral administration of III, 50 to 300 mg/kg.

O=C(Nc1nnn[nH]1)c1cnc2sc3c(n2c1=O)CCCC3 [Compound III, N-(5-Tetrazolyl)-1-oxo-1H-cyclohexenothiazolo[3,2-a]pyrimidine-2-carboxamide]
inhibition in vivo at 3 mg/kg ([1]; Rattus norvegicus, IgE, oral, 3 mg./kg., read-out: Oral Activity (% of Protection) in the PCA Test, IgE): 47%
oral activity ([1]; oral): excellent oral activity
dose range for antiallergy effects ([1]; rat, in vivo): 1 to 10 mg/kg
antagonism of spasm of isolated guinea pig ileum [2]: does not antagonize spasms
antagonism of spasm of isolated guinea pig ileum [3]: does not antagonize spasms
selectivity ratio [4]: 5 to 15
blood pressure [5]: transient hypotension
heart rate [5]: variable changes in heart rate
pressor responses to epinephrine and bilateral carotid occlusion [5]: diminished slightly
drug-induced chromosomal breakage, human lymphocytes [6]: failed to reveal any significant drug-induced chromosomal breakage
levels after the eighth daily dose relative to initial dose [7]: 2 to 4 times
